Results: US10034886B2, “GLP-1 receptor modulators” (Celgene International II SÀRL, priority 2014, dated 2018)
Read-outs that look alike come from different tables or passages of the source.

Target: T1, GLP-1R (Homo sapiens, UniProt P43220)
T1 construct: host or cells: GLP-1R CRE-bla CHO-K1 cells
Assay: EC20 GLP-1(9-36) PAM cAMP assay: dose response of compound in the presence of fixed concentration of GLP-1(9-36)
Format: cell-based
Conditions: GLP-1R CRE-bla CHO-K1 cells
Procedure, shortened: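 GLP-1R CRE-bla CHO-K1 cells treated 30 min at 37 °C with 12-point compound dose response plus fixed EC20 GLP-1(9-36), with IBMX, in HBSS/HEPES/0.1% BSA pH 7.4. Total cAMP measured by luminescent detection against standard curve; EC50 and Emax from non-linear regression.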

[1] = dose response of compound in presence of fixed concentration of GLP-1(9-36), read-out: EC20 GLP-1(9-36) PAM EC50
[2] = compound dose response with fixed concentration of GLP-1(9-36), read-out: EC20 GLP-1(9-36) PAM EC50

T1 sequence (P43220 24-463): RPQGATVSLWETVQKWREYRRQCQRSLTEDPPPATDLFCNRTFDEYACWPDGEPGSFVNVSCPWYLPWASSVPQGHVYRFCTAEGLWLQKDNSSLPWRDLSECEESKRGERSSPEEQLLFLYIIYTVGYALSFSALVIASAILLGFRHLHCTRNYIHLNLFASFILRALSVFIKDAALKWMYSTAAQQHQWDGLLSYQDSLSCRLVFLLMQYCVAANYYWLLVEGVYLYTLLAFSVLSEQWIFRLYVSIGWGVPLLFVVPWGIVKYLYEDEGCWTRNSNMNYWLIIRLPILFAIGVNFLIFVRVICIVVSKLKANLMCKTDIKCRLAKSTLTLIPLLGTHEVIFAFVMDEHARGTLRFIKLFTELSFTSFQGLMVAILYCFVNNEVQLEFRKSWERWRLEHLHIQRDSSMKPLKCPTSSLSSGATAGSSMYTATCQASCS
T1 sequence (P01275 100-127 partner limits assumed): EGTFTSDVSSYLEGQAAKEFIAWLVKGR

| Structure (SMILES) | EC50 [1] | EC50 [2] | further results |
| --- | --- | --- | --- |
| CC(C)CCCCOc1ccc(-c2cnc(-c3ccc(C[C@H](NC(=O)c4ccc(C(C)(C)C)cc4)C(=O)NCCC(=O)O)cc3)nc2)cc1 [Compound 472, (S)-3-(2-(4-(tert-butyl)benzamido)-3-(4-(5-(4-((5-methylhexyl)oxy)phenyl)-pyrimidin-2-yl)phenyl)propanamido)propanoic acid] | 800 to 2500 nM |  |  |
| CCCCCCCOc1ccc(-c2cnc(-c3ccc(C[C@H](NC(=O)c4ccc(CC(C)C)cc4)C(=O)N4CC(C(=O)O)C4)cc3)nc2)cc1 [Compound 1116] | 800 to 2500 nM |  |  |
| C[C@@H](NC(=O)[C@H](Cc1ccc(-c2ncc(-c3ccc(-c4ccc(OC(F)(F)F)cc4)cc3)cn2)cc1)NC(=O)c1ccc(C(C)(C)C)s1)C(=O)O [Compound 1314] |  | < 800 nM |  |
| CCCCCCCOc1ccc(-c2cnc(-c3ccc(C[C@H](NC(=O)c4ccc(C(C)(C)C)s4)C(=O)NC(C(=O)O)C(O)c4ccccc4)cc3)nc2)cc1 (stereo partly drawn) [Compound 634] | < 800 nM |  |  |
| CCCCCCCOc1ccc2cc(-c3ccc(C[C@H](NC(=O)c4ccc(C(C)(C)C)cc4)C(=O)N[C@H](C)C(=O)O)cc3)ncc2c1 [Compound 808] | 2500 to 5000 nM |  |  |
| CCC[C@H]1CC[C@H](C2CCN(c3cnc(-c4ccc(C[C@H](NC(=O)c5ccc(C(C)(C)C)s5)C(=O)N[C@H](C(=O)O)[C@@H](C)O)cc4)nc3)CC2)CC1 [Compound 1469] |  | < 800 nM |  |
| CCCCOc1ccc(C(=O)N[C@@H](Cc2ccc(-c3ncc(-c4ccc(OCCCC(C)C)cc4)cn3)cc2)C(=O)N2CC(C(=O)O)C2)cc1 [Compound 1243] |  | 800 to 2500 nM |  |
| CCCCCCCOc1ccc(-c2cnc(-c3ccc(C[C@H](NC(=O)c4ccc(C(C)(C)C)s4)C(=O)N4CC[C@H](c5nnn[nH]5)C4)cc3)nc2)cc1 [Compound 886] |  |  | EC50 (EC20 GLP-1(9-36) PAM EC50, dose response of compound in presence of fixed concentration of GLP-1(9-36)): 800 to 2500 nM |
| CC(C)(C)c1ccc(C(=O)N[C@@H](Cc2ccc(-c3ncc(-c4ccc(-c5ccc(C6CCCCC6)cc5)cc4F)cn3)cc2)C(=O)N2CC(C(=O)O)C2)s1 [Compound 1212] |  | < 800 nM |  |
| CCCc1cnc(C2CCN(c3cnc(-c4ccc(C[C@H](NC(=O)c5ccc(C(C)(C)C)s5)C(=O)N5CC(C(=O)O)C5)cc4)nc3)CC2)nc1 [Compound 1499] |  | 2500 to 5000 nM |  |
| CCCCCCCOc1ccc(-c2cnc(-c3ccc(C[C@H](NC(=O)c4ccc(CC(C)C)cc4)C(=O)N[C@H](C)C(=O)O)cc3)nc2)cc1 [Compound 823] | 800 to 2500 nM |  |  |
| CCCCCCCOc1ccc(-c2cnc(-c3ccc(C[C@H](NC(=O)c4ccc(C(C)(C)C)s4)C(=O)NC(C(=O)O)c4ccc(C(F)(F)F)cc4)cc3)nc2)cc1 (stereo partly drawn) [Compound 618] | 5000 to 10000 nM |  |  |
| CCC[C@H]1CC[C@H](C2CCN(c3cnc(-c4ccc(C[C@H](NC(=O)c5cnn(C(C)(C)C)c5)C(=O)N5CC(C(=O)O)C5)cc4)nc3)CC2)CC1 [Compound 1516] |  | < 800 nM |  |
| Cc1cc(-c2cnc(-c3ccc(C[C@H](NC(=O)c4ccc(C(C)(C)C)s4)C(=O)N[C@H](C)C(=O)O)cc3)nc2)ccc1OC(C)C [Compound 1007] | 800 to 2500 nM |  |  |
| CCCCCCCOc1ccc(-c2cnc(-c3ccc(C[C@H](NC(=O)c4ccc(C(C)(C)C)cc4)C(=O)N[C@H](CC(=O)O)C(=O)NC)cc3)nc2)cc1 [Compound 589] | 800 to 2500 nM |  |  |
| CC[C@H]1CC[C@H](c2ccc(-c3ccc(-c4ccc(C[C@H](NC(=O)c5ccc(C(C)(C)C)s5)C(=O)O)cc4)nc3)cc2)CC1 [Compound 1333, (S)-2-(5-(tert-butyl)thiophene-2-carboxamido)-3-(4-(5-(4-((1r,4r)-4-ethylcyclohexyl)phenyl)pyridin-2-yl)phenyl)propanoic acid] |  | 2500 to 5000 nM |  |
| CCCCc1ccc(CC2CN(c3cnc(-c4ccc(CC(NC(=O)c5ccc(C(C)(C)C)s5)C(=O)N5CC(C(=O)O)C5)cc4)nc3)C2)cc1 (stereo not drawn) [Compound 1510] |  | 2500 to 5000 nM |  |
| CCC[C@H]1CC[C@H](C2CCN(c3cnc(-c4ccc(C[C@H](NC(=O)c5ccc(C(C)(C)C)s5)C(=O)NC(CCN)C(=O)O)cc4)nc3)CC2)CC1 (stereo partly drawn) [Compound 1471] |  | < 800 nM |  |
| C[C@@H](NC(=O)[C@H](Cc1ccc(-c2ncc(-c3ccc(C(C)(C)C#N)cc3F)cn2)cc1)NC(=O)c1ccc(C(C)(C)C)s1)C(=O)O [Compound 1018] | 5000 to 10000 nM |  |  |
| CCC[C@H]1CC[C@H](C2CCN(c3cnc(-c4ccc(C[C@H](NC(=O)c5ccc(C(C)(C)C)s5)C(=O)NCCC(=O)O)cc4)nc3)CC2)CC1 [Compound 1433] |  | < 800 nM |  |
| CCCCCCCOc1ccc(-c2cnc(-c3ccc(C[C@H](NC(=O)c4ccc(C(C)C)s4)C(=O)N[C@H](C)C(=O)O)cc3)nc2)cc1 [Compound 841] | 800 to 2500 nM |  |  |
| CC(C)(C)c1ccc(C(=O)N[C@@H](Cc2ccc(-c3ncc(-c4ccc(OCC(F)(F)F)cc4)cn3)cc2)C(=O)NC(C(=O)O)C(O)c2ccccc2)s1 (stereo partly drawn) [Compound 928] | 2500 to 5000 nM |  |  |
| CCCCCCCOc1ccc(-c2cnc(-c3ccc(C[C@H](NC(=O)c4ccc(C(C)(C)C)s4)C(=O)N[C@H](CC(=O)NC)C(=O)O)cc3)nc2)cc1 [Compound 663] | 800 to 2500 nM |  |  |
| CC(C)CCCOc1ccc(-c2cnc(-c3ccc(C[C@H](NC(=O)c4ccc(S(C)(=O)=O)s4)C(=O)N4CC(C(=O)O)C4)cc3)nc2)cc1 [Compound 1246] |  | < 800 nM |  |

| Structure (SMILES) | EC50 [1] | EC50 [2] | further results |
| --- | --- | --- | --- |
| CCCCCCCOc1ccc(-c2cnc(-c3ccc(C[C@H](NC(=O)c4ccc(C(C)(C)C)s4)C(=O)N4CCC(F)(C(=O)O)C4)cc3)nc2)cc1 (stereo partly drawn) [Compound 652] | < 800 nM |  |  |
| CCCCCCCOc1ccc(-c2cnc(-c3ccc(C[C@H](NC(=O)c4ccc(C(C)(C)C)s4)C(=O)N[C@H](CC)C(=O)O)cc3)nc2)cc1 [Compound 402] | < 800 nM |  |  |
| CC(C)(C)c1ccc(C(=O)N[C@@H](Cc2ccc(-c3ncc(-c4ccc(OCCC5CCCCC5)cc4)cn3)cc2)C(=O)N2CC(C(=O)O)C2)s1 [Compound 945] | < 800 nM |  |  |
| CCCCCCCOc1ccc(-c2cnc(-c3ccc(C[C@H](NC(=O)c4ccc(C(C)(C)C)cc4)C(=O)NCC(=O)NCCC(=O)O)cc3)nc2)cc1 [Compound 445] | < 800 nM |  |  |
| CC(C)(C)c1ccc(C(=O)N[C@@H](Cc2ccc(-c3ncc(-c4ccc(C5CCC6(CC5)OCCO6)cc4)cn3)cc2)C(=O)N2CC(C(=O)O)C2)s1 [Compound 1186] | < 800 nM |  |  |
| CCCCCCCOc1ccc(-c2cnc(-c3ccc(C[C@H](NC(=O)c4ccc(CC)s4)C(=O)N4CC(C(=O)O)C4)cc3)nc2)cc1 [Compound 1110] | 800 to 2500 nM |  |  |
| CCCCCCCOc1ccc(-c2cnc(-c3ccc(C[C@H](NC(=O)c4ccc(C(C)(C)C)cc4)C(=O)N[C@@H](CC(=O)N(C)C)C(=O)O)cc3)nc2)cc1 [Compound 478] | < 800 nM |  |  |
| CCC[C@H]1CC[C@H](C2CCN(c3cnc(-c4ccc(C[C@H](NC(=O)c5cnc(C(C)(C)C)nc5)C(=O)N5CC(C(=O)O)C5)cc4)nc3)CC2)CC1 [Compound 1514] |  | < 800 nM |  |
| CCCCCCCOc1ccc(-c2cnc(-c3ccc(C[C@H](NC(=O)c4ccc(C(C)(C)C)cc4)C(=O)N[C@@H](CCN)C(=O)O)cc3)nc2)cc1 [Compound 475] | 800 to 2500 nM |  |  |
| CCCCCCCOc1ccc(-c2cnc(-c3ccc(C[C@H](NC(=O)c4ccc(CCCC)cc4)C(=O)N4CCC[C@H]4C(=O)O)cc3)nc2)cc1 [Compound 1075] | 800 to 2500 nM |  |  |
| CCc1ccc(-c2ccc(-c3cnc(-c4ccc(C[C@H](NC(=O)c5ccc(C(C)(C)C)s5)C(=O)N5CC(C(=O)O)C5)cc4)nc3)c(F)c2)cc1 [Compound 1189] | < 800 nM |  |  |
| CCOc1ccc(C2CCN(c3cnc(-c4ccc(CC(NC(=O)c5ccc(C(C)(C)C)s5)C(=O)N5CC(C(=O)O)C5)cc4)nc3)CC2)cc1 (stereo not drawn) [Compound 1490] |  | 800 to 2500 nM |  |
| CCCCCCCOc1ccc(-c2cnc(-c3ccc(C[C@H](NC(=O)c4ccc(C(C)(C)C)cc4)C(=O)NC4(CC(=O)O)CCOCC4)cc3)nc2)cc1 [Compound 553] | 800 to 2500 nM |  |  |
| CCCCCCCOc1ccc(-c2cnc(-c3ccc(C[C@H](NC(=O)c4ccc(O)c(F)c4)C(=O)N4CC(C(=O)O)C4)cc3)nc2)cc1 [Compound 1104] | 800 to 2500 nM |  |  |
| CC(C)(C)c1ccc(C(=O)N[C@@H](Cc2ccc(-c3ncc(N4CCC(c5cccc(Cl)c5)CC4)cn3)cc2)C(=O)N2CC(C(=O)O)C2)s1 [Compound 1479] |  | 800 to 2500 nM |  |
| CCCCCCCCOc1ccc(-c2cnc(-c3ccc(C[C@H](NC(=O)c4ccc(C(C)(C)C)cc4)C(=O)N[C@H](C)C(=O)O)cc3)nc2)cc1 [Compound 723] | 800 to 2500 nM |  |  |
| CCCCCCCOc1ccc(-c2cnc(-c3ccc(C[C@H](NC(=O)c4ccc(C(C)(C)C)cc4)C(=O)N4C[C@@H](O)C[C@H]4C(=O)O)cc3)nc2)cc1 [Compound 587] | < 800 nM |  |  |
| CCCCCCCOc1ccc(-c2cnc(-c3ccc(C[C@H](NC(=O)c4ccc(C(C)(C)C)s4)C(=O)N[C@@H](CC(=O)O)C(=O)NC)cc3)nc2)cc1 [Compound 526] | < 800 nM |  |  |
| C[C@@H](NC(=O)[C@H](Cc1ccc(-c2ncc(-c3cc(OC(F)(F)F)ccc3F)cn2)cc1)NC(=O)c1ccc(C(C)(C)C)s1)C(=O)O [Compound 1026] | 2500 to 5000 nM |  |  |
| CCCCCCCOc1ccc(-c2cnc(-c3ccc(C[C@H](NC(=O)c4ccc(OCC)cc4)C(=O)N4CC[C@H](C(=O)O)C4)cc3)nc2)cc1 [Compound 848] | 2500 to 5000 nM |  |  |
| CCC[C@H]1CC[C@H](C2CCN(c3cnc(-c4ccc(CC(NC(=O)c5ccc(C(C)(C)C)s5)C(=O)NS(=O)(=O)CC(C)(C)C)cc4)nc3)CC2)CC1 (stereo partly drawn) [Compound 1544] |  | < 800 nM |  |
| Cc1ccc(-c2ccc(-c3cnc(-c4ccc(C[C@H](NC(=O)c5ccc(C(C)(C)C)s5)C(=O)N[C@H](C)C(=O)O)cc4)nc3)c(F)c2)cc1 [Compound 1172] | 800 to 2500 nM |  |  |
| CCCOc1ccc(-c2cnc(-c3ccc(C[C@H](NC(=O)c4ccc(C(C)(C)C)s4)C(=O)NC(C(=O)O)C(O)c4ccccc4)cc3)nc2)cc1 (stereo partly drawn) [Compound 933] | 5000 to 10000 nM |  |  |
| CCCCc1ccc(-c2ccc(-c3cnc(-c4ccc(C[C@H](NC(=O)c5ccc(C(C)(C)C)s5)C(=O)O)cc4)nc3)c(F)c2)cc1 [Compound 1361] |  | 800 to 2500 nM |  |
